Source: the NIST ThermoML archive (doi:10.1021/je0496995)

What was measured:
[1] = Liquid; for viscosity: 101.3 kPa, Capillary tube (Ostwald / Ubbelohde) method; for mass density: 101.33 kPa, Pycnometric method
[2] = mn = molality of the nth substance listed, in mol/kg; conditions: Liquid, m2 = 0; for viscosity: 101.3 kPa, Capillary tube (Ostwald / Ubbelohde) method; for mass density: 101.33 kPa, Pycnometric method
[3] = wn = mass fraction of the nth substance listed; conditions: 101.3 kPa, Liquid; for viscosity: Capillary tube (Ostwald / Ubbelohde) method; for mass density: Pycnometric method

Cc1cccnc1 [3-methylpyridine]
[1]
Conditions	mass density [kg/m3]	viscosity [mPa·s]
293.15 K	956	0.9459
303.15 K	946.6	0.8318
313.15 K	937.7	0.7352
323.15 K	928.3	0.6565
333.15 K	919.3	0.5936
343.15 K	910.3	0.539

Cc1cccnc1 [3-methylpyridine] + O=C(O)c1cccnc1
[2]
Conditions	mass density [kg/m3]	viscosity [mPa·s]
293.15 K	956	0.9459
303.15 K	946.6	0.8318
313.15 K	937.7	0.7352
323.15 K	928.3	0.6565
333.15 K	919.3	0.5936
343.15 K	910.3	0.539

Cc1cccnc1 [3-methylpyridine] + O
[3]
Conditions	mass density, w1 = 0.1 [kg/m3]	mass density, w1 = 0.15 [kg/m3]	viscosity, w2 = 0.1 [mPa·s]	viscosity, w2 = 0.15 [mPa·s]
293.15 K	997.8	997.5	1.291	1.448
303.15 K	994.4	993.7	1.002	1.143
313.15 K	990.2	989.2	0.8117	0.9152
323.15 K	985.2	983.7	0.6796	0.7673
333.15 K	979.6	977.7	0.5794	0.6568
343.15 K	973.7	971.7	0.5053	0.5712
